Where two headings read alike, the source gives them in different places.
Experiments:
[1] = tested on: COLO32ODM cells; experiment: LDH cytotoxicity test, cancer cell line; type: cell-based, human; conditions: 48 hours
Description: (§3) LDH released is measured to determine whether a compound is toxic.
(§4) Thermo's Cat. No. 88953 LDH Cytotoxicity assay kit was used. 20,000 cells were seeded in a 96 well plate and treated with 100 μM and 500 μM compounds after 24 hours of culture. After 48 hours, transfer 50 μL of the compound-treated culture supernatant to a new 96-well plate, add 50 μL of substrate mix buffer provided in the kit, block light, and react at room temperature for 30 minutes. After adding 50 μL of Stop solution, the absorbance was measured at 490 nm using a microplate reader (Molecular Device, spectramax i3).

[2] = tested on: COLO32ODM tumor xenograft; experiment: In vivo mouse tumor xenograft, COLO32ODM; conditions: for tumor size compared to the control group: nude mice, 3 weeks
Description: (§1) The compounds of the present invention were administered to mouse tumor xenograft to measure tumor suppression in vivo test. BALB/C-nu female 5-week-old mice were introduced. COLO32ODM and SW480 cells, which are human colorectal cancer cells, were isolated from culture flasks using trypsin and prepared at a concentration of 1×10^8 cell/ml. It was mixed with Matrigel (Gibco, Cat. No. A14133-02) at a ratio of 1:1 and injected 100 μL subcutaneously into the dorsal side of 5-week-old mice. After 2 weeks, when the volume of the mouse tumor reached 100 mm^3, oral administration of the compound was started 5 times a week. (Day 0), After that, it was conducted for 3 weeks.
(§2) In the negative control group, 0.1% Carboxylmethyl cellulose and 0.2% tween 80 solution were administered instead of the compound according to the same administration route and administration frequency. 6 mice were used for each experimental group (FIG. 3). The size of the tumor was measured in the long axis (length, L) and the short axis (width, W) once every 3 days, and the tumor volume (mm^3) was calculated as (L×W×W)/2 thereby the average for each group was calculated. Statistical processing was performed using the GraphPad Prism6 program, and a p-value of less than 0.05 was considered significant.
A 5-week-old nude mouse whose thymus was removed and whose T cells were reduced and whose immune system was suppressed was introduced, and human colorectal cancer cell lines, COLO32ODM and SW480, were subcutaneously injected.

[3] = tested on: SW480 tumor xenograft; experiment: In vivo mouse tumor xenograft, SW480; conditions: nude mice, oral 10 mpk, 20 mpk, 40 mpk, 3 weeks
Description: as §1
as §2, with “Dissolve the compound in 0.1% Carboxylmethyl cellulose (CMC) and 0.2% tween 80 solution at concentrations of 2 mg/ml, 4 mg/ml, and 8 mg/ml, and 100 ul was orally administered to achieve concentrations of 10 mpk, 20 mpk, and 40 mpk. In” for “In”, “Statistical processing was performed using the GraphPad Prism6 program, and a p-value of less than 0.05 was considered significant.” left out

[4] = molecular target: T1, SIRT7 protein (Homo sapiens, UniProt Q9NRC8); experiment: SIRT Glo assay, inhibitory activity against Sirt7; type: biochemical; conditions: 10 μM compound
T1 construct: purchased SignalChem S41-30H
T1 sequence (Q9NRC8 1-400): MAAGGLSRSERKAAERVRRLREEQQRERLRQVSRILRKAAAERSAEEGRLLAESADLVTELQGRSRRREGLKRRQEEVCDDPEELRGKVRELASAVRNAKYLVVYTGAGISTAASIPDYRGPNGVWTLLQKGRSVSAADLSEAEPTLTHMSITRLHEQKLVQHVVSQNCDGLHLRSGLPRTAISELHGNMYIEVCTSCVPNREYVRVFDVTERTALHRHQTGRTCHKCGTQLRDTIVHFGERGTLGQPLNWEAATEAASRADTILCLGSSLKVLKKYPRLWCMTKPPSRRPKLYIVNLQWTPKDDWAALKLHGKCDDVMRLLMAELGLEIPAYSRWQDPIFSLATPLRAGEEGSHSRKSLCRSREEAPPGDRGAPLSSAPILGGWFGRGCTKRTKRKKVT
How it was run: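 Recombinant SIRT7 (20 ng per well) pre-incubated 30 min with compound in SIRT Glo buffer, then SIRT Glo substrate added for 1 h before luminescence reading. Background-subtracted signal expressed as % inhibition relative to no-compound control.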

[5] = tested on: WI38 cells; conditions: human, 48 h
Description: as §3, §4

In the case of `CCNC(=O)N1CCN(Cc2ccc(C(=O)Nc3nc4ccccc4s3)cc2)CC1` [Compound 1-37, 4-(4-(benzo[d]thiazol-2-ylcarbamoyl)benzyl)-N-ethylpiperazine-1-carboxamide], the “cytotoxicity (LDH release) compared to the positive control that damaged all cell membranes” value ([1]; 100 μM) is reported as 62.1%, the “cytotoxicity (LDH release) compared to the positive control that damaged all cell membranes” value ([1]; 500 μM) is reported as 62.0% and the “tumor size compared to the control group” value ([2]; oral 10 mpk, 20 mpk, 40 mpk) is reported as “reduced”. The “dose dependence of tumor formation inhibitory effect” value ([2]; oral 10, 20, 40 mpk) was “concentration-dependent tumor formation inhibitory effect”, the “tumor formation inhibitory effect” value ([2]; oral 40 mpk) was “most significant tumor formation inhibitory effect” and the “tumor size compared to the control group” value [3] was “reduced”. The inhibition at 10 µM [4] was 81%, the “cytotoxicity (LDH release) compared to the positive control that damaged all cell membranes” value ([5]; 100 μM) was 29.9% and the “cytotoxicity (LDH release) compared to the positive control that damaged all cell membranes” value ([5]; 500 μM) was 41.6%.

`CCNC(=O)N1CCC(=Cc2ccc(C(=O)Nc3nc4ccccc4s3)c(Cl)c2)CC1` [Compound 1-105, 4-(4-(benzo[d]thiazol-2-ylcarbamoyl)-3-chlorobenzylidene)-N-ethylpiperidine-1-carboxamide] was tested, and the “tumor size compared to the control group” value [2] was “reduced” and the inhibition at 10 µM [4] was 100%.

In the case of `O=C(Nc1nc2ccccc2s1)c1ccc(C=C2CCN(C(=O)Nc3ccccc3)CC2)cc1Cl` [Compound 1-106, 4-(4-(benzo[d]thiazol-2-ylcarbamoyl)-3-chlorobenzylidene)-N-phenylpiperidine-1-carboxamide], the “tumor size compared to the control group” value [2] is reported as “reduced” and the inhibition at 10 µM [4] is reported as 99%.

With `O=C(Nc1nc2ccccc2s1)c1ccc(C=C2CCN(C(=O)Nc3ccc(C(F)(F)F)cc3)CC2)cc1Cl` [Compound 1-107, 4-(4-(benzo[d]thiazol-2-ylcarbamoyl)-3-chlorobenzylidene)-N-(4-(trifluoromethyl)phenyl)piperidine-1-carboxamide] the inhibition at 10 µM [4] was 34%.

Work on `O=C(Nc1nc2ccccc2s1)c1ccc(C=C2CCN(C(=O)Nc3ccc(F)cc3)CC2)cc1Cl` [Compound 1-108, 4-(4-(benzo[d]thiazol-2-ylcarbamoyl)-3-chlorobenzylidene)-N-(4-fluorophenyl)piperidine-1-carboxamide] yielded an inhibition at 10 µM [4] of 100%.

Reference: patent publication US20240116897A1, “BENZOTHIAZOLE AND BENZIMIDAZOLE DERIVATIVES, PHARMACEUTICALLY ACCEPTABLE SALT THEREOF, PREPARATION METHOD THEREFOR, AND PHARMACEUTICAL COMPOSITION COMPRISING SAME AS ACTIVE INGREDIENT” (KOREA RESEARCH INSTITUTE OF CHEMICAL TECHNOLOGY, priority 2021, published 2024)
